Laboratory results: PMC4264749, “Phlebotomy Treatment for Elimination of Perfluoroalkyl Acids in a Highly Exposed Family: A Retrospective Case-Series” (PLoS ONE, 2014)
Where two headings read alike, the source gives them in different places.

Experiments:
[1] = Serum PFAA concentrations in family members during intermittent phlebotomy (HPLC-MS/MS); format: in vivo, human; details: for Serum concentration before treatment: before phlebotomy
From the text: After receiving informed consent, intermittent phlebotomy was undertaken at an overall rate (Table 2) that was equal to or less than the maximum rate of what is done for routine blood donations at the Canadian Blood Services: ∼500 ccs of whole blood every 56 days. Frequency and timing of blood removal was not consistent between family members because of their personal availability, success at each time of venesection, and compliance of each participant. […] Mineral supplementation was discussed and was taken by each participant.
All serum samples were submitted to ALS Laboratories (Edmonton, AB) for quantitative analysis of PFAAs (see Supporting Information, S1 Table). Samples were extracted by solid phase extraction and concentrations of PFHxS, PFOS, and PFOA were determined using high performance liquid chromatography/tandem mass spectrometry. Formic acid (0.1 M) along with a mixture of isotopically labeled PFAAs (Wellington Laboratories, Guelph, Ontario) were added to 1.0 mL of serum. The mixture was vortexed, sonicated, and subjected to solid phase extraction. The extract was concentrated to 100 uL and an instrument performance internal standard was added along with 200 uL of 90% 20 mM aqueous acetic acid/10% methanol. Procedural blanks were run with each set of samples, and method limits of quantification (LOQ) were 0.5 ng/mL for each analyte. For the few PFAA levels that fell below this LOQ (shown as hollow circles in Figs. 1–3), LOQ/√2 (i.e. 0.35 ng/mL) was substituted for purposes of data analysis. PFHxS, PFOS, and PFOA levels in all participating family members were >LOQ throughout the intervention except for 3 PFOS measurements out of 16 total measurements in the 3rd child and one PFOA measurement out of 9 total measurements in the […]. Written informed consent was given by participants (or parents in the case of children) for their clinical records to be used in this study.

[2] = set-up: method as in earlier work; details: 2009–2011; cited from earlier work
[3] = Apparent elimination half-life (HLapp) and phlebotomy efficiency coefficient in treated family members; format: in vivo, human; details: family members with regular phlebotomy, except parent
From the text: To evaluate the effect of phlebotomy, versus the expected rate of intrinsic elimination, we graphically and statistically compared the observed decreasing trends in each family member (fitted to a simple exponential decay model) with reference population elimination kinetics. Specifically, for the reference population of occupationally exposed retirees, we considered: i) the 95% confidence interval of the geometric mean elimination rate for each PFAA, and ii) the fastest individual rate of elimination rate among the reference population. For comparative purposes, the concentration of each PFAA in serum on the first day of the intervention was taken as time zero, and the models were forced through this starting point.
One metric that was calculated to compare the efficiency of the phlebotomy for removal of different PFAAs in each family member was termed the phlebotomy efficiency coefficient (EC). This was based on the subtractive difference between HLapp (yrs) in each treated family member and the geometric mean HLin (yrs) of the reference population according to Equation 1 . [drawing 1] (1)

[4] = set-up: method as in PMID 17805419; details: cited from earlier work
[5] = set-up: method as in PMID 23980546; details: urinary excretion, China, cited from earlier work

Structure (SMILES): O=S(=O)(O)C(F)(F)C(F)(F)C(F)(F)C(F)(F)C(F)(F)C(F)(F)F [PFHxS, Perfluorohexane sulfonate]
- Serum concentration before treatment ([1]; 1st Child): 78.6 ng/mL
- Serum concentration ([1]; 1st Child, sampling date 2009.10.12): 51.9 ng/mL
- Serum concentration ([1]; 1st Child, sampling date 2009.12.24): 40.5 ng/mL
- Serum concentration ([1]; 1st Child, sampling date 2009.6.9): 78.6 ng/mL
- Serum concentration ([1]; 1st Child, sampling date 2009.9.9): 39.0 ng/mL
- Serum concentration ([1]; 1st Child, sampling date 2010.10.14): 51.9 ng/mL
- Serum concentration ([1]; 1st Child, sampling date 2010.1.17): 30.3 ng/mL
- Serum concentration ([1]; 1st Child, sampling date 2010.2.11): 25.3 ng/mL
- Serum concentration ([1]; 1st Child, sampling date 2010.4.14): 29.9 ng/mL
- Serum concentration ([1]; 1st Child, sampling date 2011.12.5): 10.0 ng/mL
- Serum concentration ([1]; 1st Child, sampling date 2011.5.17, LOD=0.5ng/mL): 31.8 ng/mL
- Serum concentration ([1]; 1st Child, sampling date 2011.8.12, LOD=0.5ng/mL): 27.8 ng/mL
- Serum concentration ([1]; 1st Child, sampling date 2012.12.28, LOD=0.5ng/mL): 21.7 ng/mL
- Serum concentration ([1]; 1st Child, sampling date 2012.4.24): 32.7 ng/mL
- Serum concentration ([1]; 1st Child, sampling date 2012.8.21): 25.1 ng/mL
- Serum concentration ([1]; 1st Child, sampling date 2013.3.30): 18.1 ng/mL
- Serum concentration ([1]; 1st Child, sampling date 2013.7.30): 11.9 ng/mL
- Serum concentration before treatment ([1]; 2nd Child): 140 ng/mL
- Serum concentration ([1]; 2nd Child, sampling date 2009.10.24): 97.5 ng/mL
- Serum concentration ([1]; 2nd Child, sampling date 2009.6.6): 140.0 ng/mL
- Serum concentration ([1]; 2nd Child, sampling date 2009.7.2): 124.0 ng/mL
- Serum concentration ([1]; 2nd Child, sampling date 2009.7.30): 132.0 ng/mL
- Serum concentration ([1]; 2nd Child, sampling date 2009.8.24): 162.0 ng/mL
- Serum concentration ([1]; 2nd Child, sampling date 2009.9.27): 67.2 ng/mL
- Serum concentration ([1]; 2nd Child, sampling date 2010.1.3): 57.9 ng/mL
- Serum concentration ([1]; 2nd Child, sampling date 2010.2.15): 44.7 ng/mL
- Serum concentration ([1]; 2nd Child, sampling date 2011.10.2): 47.4 ng/mL
- Serum concentration ([1]; 2nd Child, sampling date 2011.12.24): 43.2 ng/mL
- Serum concentration ([1]; 2nd Child, sampling date 2011.4.27): 72.3 ng/mL
- Serum concentration ([1]; 2nd Child, sampling date 2011.8.14): 63.0 ng/mL
- Serum concentration ([1]; 2nd Child, sampling date 2012.12.24): 78.7 ng/mL
- Serum concentration ([1]; 2nd Child, sampling date 2012.4.6): 48.3 ng/mL
- Serum concentration ([1]; 2nd Child, sampling date 2013.5.11.): 34.8 ng/mL
- Serum concentration ([1]; 2nd Child, sampling date 2013.7.15): 27.1 ng/mL
- Serum concentration before treatment ([1]; 3rd Child): 293 ng/mL
- Serum concentration ([1]; 3rd Child, sampling date 2010.3.12): 168.0 ng/mL
- Serum concentration ([1]; 3rd Child, sampling date 2010.5.23): 85.2 ng/mL
- Serum concentration ([1]; 3rd Child, sampling date 2011.1.6): 98.7 ng/mL
- Serum concentration ([1]; 3rd Child, sampling date 2011.11.26): 31.2 ng/mL
- Serum concentration ([1]; 3rd Child, sampling date 2011.2.24): 114.0 ng/mL
- Serum concentration ([1]; 3rd Child, sampling date 2011.4.30): 82.8 ng/mL
- Serum concentration ([1]; 3rd Child, sampling date 2011.6.13): 92.0 ng/mL
- Serum concentration ([1]; 3rd Child, sampling date 2011.9.27): 108.0 ng/mL
- Serum concentration ([1]; 3rd Child, sampling date 2012.10.16): 63.9 ng/mL
- Serum concentration ([1]; 3rd Child, sampling date 2012.1.8): 51.0 ng/mL
- Serum concentration ([1]; 3rd Child, sampling date 2012.12.9): 95.4 ng/mL
- Serum concentration ([1]; 3rd Child, sampling date 2012.3.4): 61.5 ng/mL
- Serum concentration ([1]; 3rd Child, sampling date 2012.4.28): 110.0 ng/mL
- Serum concentration before treatment ([1]; 4th Child): 167 ng/mL
- starting serum concentration relative to 95th centile among Canadians ([1]; 4th child (4th child)): ~20 fold
- Serum concentration after treatment ([1]; Average of 6 family members, after phlebotomy): 23.3 ng/mL
- Serum concentration before treatment ([1]; Average of 6 family members): 125 ng/mL
- Serum concentration before treatment ([1]; Parent one): 44.1 ng/mL
- Serum concentration ([1]; Parent one, sampling date 2009.10.11): 20.3 ng/mL
- Serum concentration ([1]; Parent one, sampling date 2009.10.12): 25.0 ng/mL
- Serum concentration ([1]; Parent one, sampling date 2009.11.12): 29.5 ng/mL
- Serum concentration ([1]; Parent one, sampling date 2009.12.14): 35.4 ng/mL
- Serum concentration ([1]; Parent one, sampling date 2009.2.2): 44.1 ng/mL
- Serum concentration ([1]; Parent one, sampling date 2009.5.18): 35.0 ng/mL
- Serum concentration ([1]; Parent one, sampling date 2009.6.1): 41.7 ng/mL
- Serum concentration ([1]; Parent one, sampling date 2009.7.4): 26.8 ng/mL
- Serum concentration ([1]; Parent one, sampling date 2009.9.1): 43.5 ng/mL
- Serum concentration ([1]; Parent one, sampling date 2010.10.10): 22.4 ng/mL
- Serum concentration ([1]; Parent one, sampling date 2010.1.17): 34.5 ng/mL
- Serum concentration ([1]; Parent one, sampling date 2010.3.13): 21.2 ng/mL
- Serum concentration ([1]; Parent one, sampling date 2011.1.6): 19.2 ng/mL
- Serum concentration ([1]; Parent one, sampling date 2011.11.26): 8.7 ng/mL
- Serum concentration ([1]; Parent one, sampling date 2011.2.24): 13.1 ng/mL
- Serum concentration ([1]; Parent one, sampling date 2011.4.30): 18.8 ng/mL
- Serum concentration ([1]; Parent one, sampling date 2011.6.22): 16.9 ng/mL
- Serum concentration ([1]; Parent one, sampling date 2011.8.4): 18.0 ng/mL
- Serum concentration ([1]; Parent one, sampling date 2011.9.27): 25.7 ng/mL
- Serum concentration ([1]; Parent one, sampling date 2012..12.28): 17.4 ng/mL
- Serum concentration ([1]; Parent one, sampling date 2012.1.14): 21.5 ng/mL
- Serum concentration ([1]; Parent one, sampling date 2012.11.1): 19.1 ng/mL
- Serum concentration ([1]; Parent one, sampling date 2012.3.4): 19.5 ng/mL
- Serum concentration ([1]; Parent one, sampling date 2012.4.29): 23.1 ng/mL
- Serum concentration ([1]; Parent one, sampling date 2012.7.8): 18.3 ng/mL
- Serum concentration ([1]; Parent one, sampling date 2012.8.21): 21.7 ng/mL
- Serum concentration ([1]; Parent one, sampling date 2013.10.27): 8.8 ng/mL
- Serum concentration ([1]; Parent one, sampling date 2013.2.18): 15.7 ng/mL
- Serum concentration ([1]; Parent one, sampling date 2013.3.30): 16.0 ng/mL
- Serum concentration ([1]; Parent one, sampling date 2013.5.11): 13.1 ng/mL
- Serum concentration ([1]; Parent one, sampling date 2013.7.15): 7.8 ng/mL
- Serum concentration ([1]; Parent one, sampling date 2013.9.8): 18.2 ng/mL
- Serum concentration before treatment ([1]; Parent two): 29.3 ng/mL
- Serum concentration ([1]; Parent two, sampling date 2009.6.1): 29.3 ng/mL
- Serum concentration ([1]; Parent two, sampling date 2009.7.7): 21.3 ng/mL
- Serum concentration ([1]; Parent two, sampling date 2009.8.24): 19.5 ng/mL
- Serum concentration ([1]; Parent two, sampling date 2010.1.3): 16.3 ng/mL
- Serum concentration ([1]; Parent two, sampling date 2010.4.11, LOD=0.5ng/mL): 17.8 ng/mL
- Serum concentration ([1]; Parent two, sampling date 2012.3.13): 16.1 ng/mL
- Serum concentration ([1]; Parent two, sampling date 2013.1.1): 13.2 ng/mL
- Serum concentration ([1]; Parent two, sampling date 2013.10.6): 13.5 ng/mL
- Serum concentration ([1]; Parent two, sampling date 2013.6.22): 9.1 ng/mL
- 95th percentile of serum concentration among Canadians [2]: 8.9 ng/mL
- HLapp compared with geometric mean HLin of reference population [3]: significantly shorter
- HLin of fastest eliminator in the reference population ([4]; reference population of occupationally exposed retirees (26 individuals)): 2.2 yrs
- 95% confidence interval of the geometric mean HLin ([4]; reference population of occupationally exposed retirees): 5.8–9.2 yrs
- intrinsic human elimination half-life (HLin) ([4]; serum, highly contaminated retirees >55 yrs, previously occupationally exposed): 8.5 years
- HLin, 95% confidence interval ([4]; serum, retirees >55 yrs, previously occupationally exposed): 6.4–10.6 yrs
- HLapp ([5]; males and post-menopausal females): 35 years
- HLapp ([5]; reproductive-aged females): 7.7 years
